This passage reports EC50 and Emax results from patent US20230000842A1, “METHODS OF TREATING CARTILAGE DISORDERS THROUGH INHIBITION OF CLK AND DYRK” (SAMUMED, LLC, priority 2019, published 2023).

For one test, the target named is CLK2 kinase (Homo sapiens, UniProt P49760). Put plainly: CLK2 kinase activity assay (Z-lyte FRET).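 Note: FRET read-out as coumarin to fluorescein emission ratio, unphosphorylated peptide as 0% and phosphorylated peptide as 100% controls, duplicate reactions, non-linear regression fit of dose-response curves.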 The class given is biochemical. The settings on record: Z-lyte Ser/Thr 6 peptide, 60 μM ATP, 1 h at room temperature.
Test [1] concerns primary human mesenchymal stem cells (hMSCs). The test is described as follows: Chondrogenesis screening using primary human mesenchymal stem cells. The class given is cell-based. The settings on record: Homo sapiens, Mesenchymal stem cells, hMSC chondrogenesis; for EC50: concentration required to induce 50% levels of chondrogenesis with TGF-β3 as positive control, read-out: Conc (nM) of 50% TGF-β3 activity; for Emax: maximum activity relative to TGF-β3 (10 ng/mL) positive control, read-out: Max. Activity as % TGF-β3 activity. In outline:
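Primary hMSCs at passage 3–6 were treated across compound concentrations, with TGF-β3 as positive control. Chondrogenic nodule area per well was normalized to 3 DMSO wells on the same plate (fold over DMSO, 2–3 replicates). EC50, maximum activity and the dose reaching it were derived.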

For test [2], the system named is Wnt pathway activity (SW480 colon carcinoma cells stably expressing the Sp5-Luc reporter). The test is described as follows: Wnt pathway activity screening assay (Sp5-Luc reporter gene assay). The settings on record: Homo sapiens, SW480, Table 4; SW480 cells stably expressing Sp5-Luc reporter, 10-point dose-response from 10 μM, 36 to 48 hours.
In another test the target is CLK3 kinase (Homo sapiens, UniProt P49761). The test is described as follows: CLK3 kinase activity assay (Z-lyte FRET).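 Note: kinase activity read as coumarin/fluorescein emission ratio by FRET, unphosphorylated peptide as 0% and phosphorylated peptide as 100% control, values from non-linear regression of dose-response curves.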 The class given is biochemical. The conditions noted are these: Z-lyte Ser/Thr 18 peptide, 156 μM ATP, 1 h at room temperature.
Chain of CLK3 kinase (P49761 whole entry): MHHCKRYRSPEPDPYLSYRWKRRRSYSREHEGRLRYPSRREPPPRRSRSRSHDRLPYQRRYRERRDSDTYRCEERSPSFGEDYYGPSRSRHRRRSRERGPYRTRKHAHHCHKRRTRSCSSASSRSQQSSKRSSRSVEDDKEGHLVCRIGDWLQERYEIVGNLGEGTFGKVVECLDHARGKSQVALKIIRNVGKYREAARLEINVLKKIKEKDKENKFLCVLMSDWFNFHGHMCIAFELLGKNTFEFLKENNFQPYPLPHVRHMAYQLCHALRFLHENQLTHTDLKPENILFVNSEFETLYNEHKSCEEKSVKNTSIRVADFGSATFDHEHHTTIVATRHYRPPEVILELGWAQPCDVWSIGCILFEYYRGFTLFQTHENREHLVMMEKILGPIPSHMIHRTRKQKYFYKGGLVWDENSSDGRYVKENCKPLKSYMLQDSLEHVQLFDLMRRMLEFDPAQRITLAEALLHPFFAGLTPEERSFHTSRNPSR

Chain of CLK2 kinase (P49760 whole entry): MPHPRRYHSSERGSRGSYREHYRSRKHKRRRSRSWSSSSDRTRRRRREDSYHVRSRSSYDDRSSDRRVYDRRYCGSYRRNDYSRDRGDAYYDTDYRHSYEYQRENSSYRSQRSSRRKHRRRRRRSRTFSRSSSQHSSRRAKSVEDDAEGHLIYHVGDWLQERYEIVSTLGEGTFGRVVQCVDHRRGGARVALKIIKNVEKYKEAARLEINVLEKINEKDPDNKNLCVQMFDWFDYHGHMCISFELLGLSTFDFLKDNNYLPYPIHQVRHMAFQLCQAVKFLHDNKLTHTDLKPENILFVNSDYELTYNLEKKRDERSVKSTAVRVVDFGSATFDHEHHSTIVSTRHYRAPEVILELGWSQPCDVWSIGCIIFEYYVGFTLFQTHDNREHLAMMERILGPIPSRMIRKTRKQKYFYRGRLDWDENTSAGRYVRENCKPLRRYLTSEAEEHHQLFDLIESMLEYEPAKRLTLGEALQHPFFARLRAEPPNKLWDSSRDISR

Consider `Nc1cncc(-c2ccc3[nH]nc(-c4nc5c(-c6ccccc6F)nccc5[nH]4)c3c2)c1` [compound 165], for which the EC50 at CLK2 kinase turned out to be 2 nM; in test [1] it was 100 nM; in test [2] it was 8.8 nM; at CLK3 kinase, 20 nM. Further, the Emax in test [1] was found to be 61.9%.

Consider `CN(C)CCNc1cc(F)cc(-c2cccc3[nH]c(-c4n[nH]c5cnc(-c6cncc(N)c6)cc45)cc23)c1` [compound 511], for which the EC50 came to 6 nM on CLK2 kinase, 100 nM in test [1], 407 nM in test [2] and 50 nM on CLK3 kinase. In addition, the Emax in test [1] came out at 180%.

With `CCCC(=O)Nc1cncc(-c2ccc3[nH]nc(-c4nc5c(-c6ccsc6)ccnc5[nH]4)c3c2)c1` [compound 245], the EC50 stood at 34 nM on CLK2 kinase, 30 nM in test [1], 7.7 nM in test [2] and 9840 nM at CLK3 kinase. Further, the Emax in test [1] was found to be 72.6%.

As to `CC(C)Nc1cncc(-c2ccc3[nH]nc(-c4nc5c(-c6ccoc6)ccnc5[nH]4)c3n2)c1` [compound 240], the EC50 on CLK2 kinase came out at 2 nM; in test [1] it was 100 nM; in test [2], 298 nM; at CLK3 kinase it was 113 nM. For the same molecule, the Emax in test [1] came out at 64.2%.

Regarding `CC(C)Nc1cncc(-c2cnc3[nH]nc(-c4nc5c(-c6cccc(F)c6)cncc5[nH]4)c3c2)c1` [compound 131], the EC50 at CLK2 kinase turned out to be 13 nM; in test [1] it was 30 nM; in test [2], 1.2 nM; at CLK3 kinase, 160 nM. Also, in test [1], the Emax came out at 504%.

Consider `c1cncc(-c2ccc3[nH]nc(-c4nc5cnccc5[nH]4)c3n2)c1` [compound 201], for which the EC50 on CLK2 kinase was 15 nM; in test [1], 30 nM; in test [2], > 10000 nM; at CLK3 kinase, 2270 nM. In addition, in test [1], the Emax is 54.8%.

On to `Cc1ccncc1-c1cc2c(-c3nc4c(-c5cc(F)cc(CNS(C)(=O)=O)c5)cccc4[nH]3)n[nH]c2cn1` [compound 288], for which the EC50 at CLK2 kinase is 11 nM; in test [1] it was 30 nM; in test [2] it was 30.4 nM; at CLK3 kinase it was 37 nM. For the same molecule, in test [1], the Emax amounted to 81.8%.

`Fc1ccc(-c2cncc3[nH]c(-c4n[nH]c5cnc(-c6cncc(CN7CCC(F)(F)C7)c6)cc45)cc23)cc1` [compound 317]: the EC50 on CLK2 kinase worked out at 16 nM; in test [1], 100 nM; in test [2] it was 3260 nM; on CLK3 kinase, 9840 nM. Besides, the Emax in test [1] came out at 78.4%.

In the case of `CN1CCN(c2nccc3[nH]c(-c4n[nH]c5cnc(-c6cncc(N)c6)cc45)cc23)CC1` [compound 472], the results for the EC50 (at CLK2 kinase; in test [2]; on CLK3 kinase) were 10 nM, > 10000 nM and 1080 nM, respectively. Also, in test [1], the Emax came out at 49.8%.

Take `CN1CCN(c2nccc3[nH]c(-c4n[nH]c5cnc(-c6cncc(NC(=O)c7ccccc7)c6)cc45)cc23)CC1` [compound 487]: the EC50 was found to be 5 nM at CLK2 kinase, 10 nM in test [1], 2800 nM in test [2] and 302 nM at CLK3 kinase. Moreover, the Emax in test [1] is 67%.

Consider `CCNCc1cncc(-c2cc3c(-c4cc5c(-c6ccccc6F)ccnc5[nH]4)n[nH]c3cn2)c1` [compound 335], for which the EC50 was 19 nM at CLK2 kinase, 30 nM in test [1], > 10000 nM in test [2] and 2310 nM on CLK3 kinase. The Emax in test [1] is 270%.

Turning to `CS(=O)(=O)NCc1cc(F)cc(-c2cncc3[nH]c(-c4n[nH]c5cnc(-c6cncc(NC(=O)C7CCC7)c6)cc45)cc23)c1` [compound 529], the EC50 at CLK2 kinase was 8 nM; in test [2] it was > 10000 nM; at CLK3 kinase, 188 nM. Moreover, the Emax in test [1] is 15.5%.

`CC(C)Nc1cncc(-c2ccc3[nH]nc(-c4nc5c(-c6cccnc6)ccnc5[nH]4)c3n2)c1` [compound 195]: the EC50 on CLK2 kinase was 1 nM; in test [1] it was 10 nM; in test [2], 1750 nM; at CLK3 kinase it was 280 nM. Further, the Emax in test [1] is 114%.

For the molecule `CN(C)Cc1cncc(-c2ccc3[nH]nc(-c4nc5c(-c6cccc(F)c6)cccc5[nH]4)c3n2)c1` [compound 136], the EC50 at CLK2 kinase came to 2 nM; in test [1], 30 nM; in test [2], 637 nM; at CLK3 kinase, 109 nM. In addition, the Emax in test [1] was determined as 84.6%.

With `CCNCc1cncc(-c2cc3c(-c4nc5c(-c6ccsc6)nccc5[nH]4)n[nH]c3cn2)c1` [compound 249], the EC50 worked out at 1 nM on CLK2 kinase, 30 nM in test [1], 59.3 nM in test [2] and 30 nM at CLK3 kinase. For the same molecule, in test [1], the Emax is 67.7%.

In the case of `CCCC(=O)Nc1cncc(-c2ccc3[nH]nc(-c4cc5c(-c6ccncc6)cncc5[nH]4)c3c2)c1` [compound 383], the EC50 was 3 nM at CLK2 kinase, > 10000 nM in test [2] and 46 nM on CLK3 kinase. In addition, the Emax in test [1] came to 124%.

On to `COc1cccc(-c2ccnc3[nH]c(-c4n[nH]c5ccc(-c6cccnc6)nc45)nc23)c1` [compound 297], for which the EC50 on CLK2 kinase turned out to be 1 nM; in test [1], 100 nM; in test [2], 1610 nM; at CLK3 kinase it was 84 nM. In test [1], the Emax stood at 50.5%.

As to `CC(C)CC(=O)Nc1cncc(-c2ccc3[nH]nc(-c4nc5c(-c6ccc(F)cc6)cncc5[nH]4)c3c2)c1` [compound 163], the EC50 at CLK2 kinase was 32 nM; in test [1], 100 nM; in test [2], 57 nM; at CLK3 kinase, 75 nM. In addition, the Emax in test [1] stood at 125%.

With `CC(C)C(=O)Nc1cncc(-c2ccc3[nH]nc(-c4nc5c(-c6ccccc6F)cncc5[nH]4)c3n2)c1` [compound 174], the EC50 on CLK2 kinase was 4 nM; in test [1] it was 10 nM; in test [2], > 10000 nM; at CLK3 kinase it was 9840 nM. In addition, the Emax in test [1] is 181%.

Regarding `CC(C)C(=O)Nc1cncc(-c2ccc3[nH]nc(-c4cc5c(-c6cccnc6)cncc5[nH]4)c3c2)c1` [compound 349], the EC50 at CLK2 kinase was 2 nM; in test [2], 260 nM; at CLK3 kinase, 37 nM. In test [1], the Emax amounted to 34.5%.

For the molecule `c1cncc(-c2ccc3[nH]nc(-c4cc5cnccc5[nH]4)c3c2)c1` [compound 410], the figures for the EC50 (at CLK2 kinase; in test [2]; on CLK3 kinase) were 1 nM, 40 nM and 15 nM, respectively. For the same molecule, the Emax in test [1] was found to be 342%.

For `O=C(Cc1ccccc1)Nc1cncc(-c2ccc3[nH]nc(-c4nc5c(-c6cccc(F)c6)cncc5[nH]4)c3c2)c1` [compound 129], the EC50 at CLK2 kinase stood at 53 nM; in test [1], 100 nM; in test [2], 23 nM; at CLK3 kinase it was 164 nM. Also, the Emax in test [1] came out at 124%.

`c1cncc(-c2cnc3[nH]nc(-c4cc5cccnc5[nH]4)c3c2)c1` [compound 411]: the EC50 at CLK2 kinase amounted to 5 nM; in test [2] it was 1060 nM; on CLK3 kinase, 351 nM. Besides, the Emax in test [1] came out at 11%.

`c1cncc(-c2ccnc3[nH]c(-c4n[nH]c5cnc(-c6cncc(CN7CCCC7)c6)cc45)cc23)c1` [compound 369]: the EC50 was 9 nM on CLK2 kinase, > 10000 nM in test [2] and 102 nM at CLK3 kinase. Moreover, in test [1], the Emax amounted to 16.7%.

For the molecule `c1ncc(-c2ccc3[nH]nc(-c4cc5c(N6CCCCC6)cncc5[nH]4)c3c2)cc1CN1CCCC1` [compound 466], the values for the EC50 (at CLK2 kinase; in test [2]; on CLK3 kinase) were 3 nM, 1840 nM and 64 nM, respectively. Further, the Emax in test [1] worked out at 24.7%.

For `O=C(Nc1cncc(-c2cnc3[nH]nc(-c4nc5c(-c6ccoc6)cncc5[nH]4)c3c2)c1)c1ccccc1` [compound 235], the EC50 at CLK2 kinase was found to be 8 nM; in test [1], 100 nM; in test [2] it was 51 nM; at CLK3 kinase it was 2630 nM. Further, the Emax in test [1] turned out to be 110%.

For `CCC(=O)Nc1cncc(-c2ccc3[nH]nc(-c4cc5c(-c6cc(F)cc(CNS(C)(=O)=O)c6)cncc5[nH]4)c3c2)c1` [compound 517], the EC50 amounted to 8 nM on CLK2 kinase, 244 nM in test [2] and 216 nM at CLK3 kinase. For the same molecule, in test [1], the Emax came to 29.4%.

Consider `Fc1cccc(-c2cncc3[nH]c(-c4n[nH]c5ncc(-c6cccnc6)cc45)cc23)c1` [compound 300], for which the EC50 at CLK2 kinase was 8 nM; in test [2] it was 572 nM; on CLK3 kinase, 122 nM. Besides, the Emax in test [1] amounted to 35.6%.

With `CC(C)Nc1cncc(-c2ccc3[nH]nc(-c4nc5c(-c6cccnc6)cncc5[nH]4)c3n2)c1` [compound 194], the EC50 on CLK2 kinase is 2 nM; in test [1], 30 nM; in test [2], 1270 nM; on CLK3 kinase it was 213 nM. The Emax in test [1] was determined as 64.6%.

With `CCCCC(=O)Nc1cncc(-c2ccc3[nH]nc(-c4cc5c(-c6ccoc6)cncc5[nH]4)c3c2)c1` [compound 499], the EC50 at CLK2 kinase came to 3 nM; in test [2], 915 nM; on CLK3 kinase it was 42 nM. The Emax in test [1] worked out at 122%.

On to `CC(C)CC(=O)Nc1cncc(-c2cnc3[nH]nc(-c4cc5c(-c6cccnc6)ccnc5[nH]4)c3c2)c1` [compound 352], for which the EC50 on CLK2 kinase is 3 nM; in test [2] it was > 10000 nM; at CLK3 kinase, 9840 nM. Also, in test [1], the Emax amounted to 43.5%.
